The source made the active and inactive calls. No cut-off for these calls is given here.
Key:
[1] = system: Neutrophil; experiment: Induction of phagocytosis in BALB/c mouse neutrophils cultured with CFSE-labeled Escherichia coli ATCC 25922 at 10 uM pretreated for 1 hr followed by bacterial exposure measured after 1.5 hrs by fluorescence microscopy; assay type: functional, cell-based; details: time 2.5 hrs
[2] = system: Neutrophil; experiment: Induction of phagocytosis in BALB/c mouse neutrophils cultured with CFSE-labeled Staphylococcus aureus ATCC 25923 at 10 uM pretreated for 1 hr followed by bacterial exposure measured after 1.5 hrs by fluorescence microscopy; assay type: functional, cell-based; details: time 2.5 hrs
[3] = system: RAW264.7; experiment: Cytotoxicity against mouse RAW264.7 cells assessed as cell viability at 5 to 40 uM incubated for 24 hrs by MTT assay; assay type: toxicity, cell-based; details: raw264.7, 24 h, dose 5-40 µM
[4] = system: RAW264.7; experiment: Induction of cell migration in mouse RAW264.7 cells incubated for 24 hrs by crystal violet staining based microscopy; assay type: functional; details: dose 5-20 µM
[5] = system: RAW264.7; experiment: Induction of IL-6 expression in mouse RAW264.7 cells incubated for 24 hrs by ELISA; assay type: functional, cell-based; details: dose 2.5-20 µM
[6] = Induction of TGF-beta1 level in mouse RAW264.7 cells at 20 uM incubated for 24 hrs by ELISA; assay type: functional
[7] = Induction of TGF-beta1 level in Aprepitant-treated mouse RAW264.7 cells at 20 uM incubated for 24 hrs by ELISA; assay type: functional
[8] = system: RAW264.7; experiment: Upregulation of phosphorylated ERK level in mouse RAW264.7 cells at 2.5 to 20 uM incubated for 4 hrs by Western blot analysis; assay type: functional, cell-based; details: dose 2.5-20 µM
[9] = system: RAW264.7; experiment: Upregulation of phosphorylated JNK level in mouse RAW264.7 cells at 2.5 to 20 uM incubated for 4 hrs by Western blot analysis; assay type: functional, cell-based; details: dose 2.5-20 µM
[10] = system: RAW264.7; experiment: Upregulation of phosphorylated Smad2 level in Aprepitant-treated mouse RAW264.7 cells at 2.5 to 20 uM incubated for 4 hrs by Western blot analysis; assay type: functional, cell-based; details: dose 2.5-20 µM
[11] = system: HaCaT; experiment: Induction of cell migration in human HaCaT cells assessed as healing rate at 20 uM measured after 24 hrs by scratch healing assay (reference value: 36.8 %); assay type: functional
[12] = system: HaCaT; experiment: Induction of cell migration in Aprepitant-treated human HaCaT cells assessed as healing rate at 20 uM measured after 48 hrs by scratch healing assay (reference value: 63.1 %); assay type: functional
[13] = system: HaCaT; experiment: Induction of cell migration in Mitomycin C-treated human HaCaT cells assessed as healing rate at 20 uM measured after 24 hrs by scratch healing assay (reference value: 21.3 %); assay type: functional
[14] = system: HaCaT; experiment: Induction of cell migration in Mitomycin C-treated human HaCaT cells assessed as healing rate at 20 uM measured after 48 hrs by scratch healing assay (reference value: 25.7 %); assay type: functional
[15] = system: HaCaT; experiment: Induction of cell migration in human HaCaT cells assessed as formation of cytoplasmic protrusions at 20 uM measured after 24 hrs by immunofluorescence microscopy; assay type: functional, cell-based
[16] = system: HUVEC; experiment: Induction of cell migration in Aprepitant-treated HUVEC cells assessed as healing rate at 20 uM measured after 24 hrs by scratch healing assay (reference value: 30.2 %); assay type: functional, Homo sapiens
[17] = system: HUVEC; experiment: Induction of cell migration in HUVEC cells assessed as formation of filopodia extensions at 20 uM measured after 24 hrs by immunofluorescence microscopy; assay type: functional, cell-based; details: Homo sapiens
[18] = system: HUVEC; experiment: Angiogenic activity in HUVEC cells assessed as increase in tube formation at 5 uM measured for 4 hrs by microscopic analysis relative to control; assay type: functional, Homo sapiens
[19] = system: Aorta; experiment: Ex vivo angiogenic activity in Aprepitant-treated C57BL/6 mouse aortic ring assessed as sprouting by measuring vessel outgrowth area at 20 uM measured for 7 days by microscopic analysis (reference value: 117.3 %); assay type: functional; details: time 7 day
[20] = Induction of wound healing in BALB/c mouse model of full-thickness wounds at 50 ug/ml, TOP bid measured after 6 days (reference value: 71.7 %); assay type: functional; details: dose 50 µg/ml, time 6 day
[21] = Induction of wound healing in BALB/c mouse model of full-thickness wounds at 200 ug/ml, TOP bid measured after 8 days (reference value: 81.0 %); assay type: functional; details: dose 200 µg/ml, time 8 day
[22] = Toxicity in BALB/c mouse model of full-thickness wounds assessed as inflammatory foci in spleen at 200 ug/ml, TOP bid measured upto 8 days by H and E staining based analysis; assay type: tissue-based; details: in vivo, topical_or_ocular, 192 h, dose 200 µg/ml, time < 8 day
[23] = Toxicity in BALB/c mouse model of full-thickness wounds assessed as inflammatory foci in liver at 200 ug/ml, TOP bid measured upto 8 days by H and E staining based analysis; assay type: tissue-based; details: in vivo, topical_or_ocular, 192 h, dose 200 µg/ml, time < 8 day
[24] = Induction of wound healing in BALB/c mouse model of full-thickness wounds at 50 ug/ml, TOP bid pretreated with Aprepitant for 2 hrs followed by compound administration measured after 4 days (reference value: 50.6 %); assay type: functional; details: dose 50 µg/ml, time 4 day
[25] = Induction of wound healing in BALB/c mouse model of full-thickness wounds at 50 ug/ml, TOP bid pretreated with Aprepitant for 2 hrs followed by compound administration measured after 8 days (reference value: 82.1 %); assay type: functional; details: dose 50 µg/ml, time 8 day
[26] = system: Splenic fibroblast; experiment: Effect on Smad3 activation in human […] fibroblasts upto 20 uM by Western blot analysis; assay type: functional, cell-based
[27] = Induction of wound healing in BALB/c mouse model of full-thickness wounds assessed as increase in collagen deposition in wound sites at 50 to 200 ug/ml, TOP bid measured after 8 days by Masson's Trichome staining based analysis relative to control; assay type: functional; details: dose 50-200 µg/ml, time 8 day, at 50 to 200 µg/mL
[28] = species on record: Mus musculus; experiment: Induction of wound healing in BALB/c mouse model of full-thickness wounds assessed as alignment of collagen fibers close to normal skin at 50 to 200 ug/ml, TOP bid measured after 8 days by Masson's Trichome staining based analysis; assay type: functional; details: dose 50-200 µg/ml, time 8.0 day
[29] = species on record: Mus musculus; experiment: Induction of wound healing in BALB/c mouse model of full-thickness wounds assessed as increase in TGF-1beta production in wound skin at 50 to 200 ug/ml, TOP bid measured after 8 days by ELISA; assay type: functional; details: dose 50-200 µg/ml, time 8.0 day
[30] = species on record: Mus musculus; experiment: Induction of wound healing in BALB/c mouse model of full-thickness wounds assessed as increase in phosphorylated Smad2 level in wound skin at 50 ug/ml, TOP bid measured after 4 days by Western blot analysis; assay type: functional; details: dose 50.0 µg/ml, time 4.0 day
[31] = species on record: Mus musculus; experiment: Induction of wound healing in BALB/c mouse model of full-thickness wounds assessed as increase in ratio of phosphorylated Smad3 level to total Smad3 level in wound skin at 50 to 200 ug/ml, TOP bid measured after 8 days by Western blot analysis; assay type: functional; details: dose 50-200 µg/ml, time 8.0 day
[32] = Induction of wound healing in BALB/c mouse model of full-thickness wounds assessed as recruitment of M1-type macrophages in wound skin at 50 ug/ml, TOP bid measured after 4 days by flow cytometry (reference value: 85.3 %); assay type: functional; details: dose 50 µg/ml, time 4 day

## H-KPNPDRFYGLM-NH2
[1]
  Activity: Active
[2]
  Activity: Active
[3]
  Activity: Non-Toxic
[4]
  Activity: Dose-Dependent Effect
[5]
  Activity: Dose-Dependent Effect
[6]
  Activity: 119.3 pg/mL
[7]
  Activity: 46.7 pg/mL
[8]
  Activity: Active
[9]
  Activity: Active
[10]
  Activity: inactive
[11]
  Activity: 72.1%
[12]
  Activity: 76.1%
[13]
  Activity: 40.2%
[14]
  Activity: 53%
[15]
  Activity: Active
[16]
  Activity: 35.9%
[17]
  Activity: Active
[18]
  Activity: 85.3%
[19]
  Activity: 40%
[20]
  Activity: 86.6%
[21]
  Activity: 100%
[22]
  Activity: Non-Toxic
[23]
  Activity: Non-Toxic
[24]
  Activity: 56.1%
[25]
  Activity: 82.5%
[26]
  Activity: inactive
[27]
  Activity: 197%
[28]
  Activity: Active
[29]
  Activity: inactive
[30]
  Activity: Active
[31]
  Activity: inactive
[32]
  Activity: 69.9%

Reference: ChEMBL document CHEMBL5375968, “Peptide TK-HR from the Skin of Chinese Folk Medicine Frog Hoplobatrachus Rugulosus Accelerates Wound Healing via the Activation of the Neurokinin-1 Receptor” (J Med Chem, 2023)
